Among the data in patent US11834458B2, “Anti-cancer nuclear hormone receptor-targeting compounds” (Nuvation Bio Inc., priority 2021, dated 2023) are IC50 and GI50 values, retold here.

SMILES strings stand for the structures. Read-outs that look alike come from different tables or passages of the source. Where only a bound is given, the exact number is not on record here.

The test system of assay [1] is IEC6 cells. Put plainly: Cell viability assay, IEC6. In kind it is cell-based. The note with it: Rattus norvegicus. How it is done: (§1) Cell viability assay: LNCap, 22Rv1, MCF7, MDAMB361, T47D, and IEC6 cells are seeded at a density of 500-2000 cells/well in 96 well plates, and a ‘T0’ (timepoint 0) was included along with the assay plate. The plates are then incubated at 37° C., 5% CO2 in a cell culture incubator overnight. On the next day, the ‘T0’ plate was assayed using CellTiterGlo (Promega, Inc) according to the manufacturer's instructions. The appropriate compounds are diluted in DMSO and added to the assay plate (final DMSO concentration of 0.1-0.2%) on the next day. The assay plates are incubated for 6 days at 37° C., 5% CO2. After the incubation period, the plates are assayed using CellTiterGlo (Promega, Inc) according to the manufacturer's instructions and luminescence was read on the EnVision plate reader. Inhibition of the tested compounds was determined by the following formula: Inhibition rate (%)=(1−(RLU compound−RLU day0)/(RLU control−RLU day0))*100%. GraphPadPrism was used to analyze the data and determine GI50/IC50 values.

Assay [2] relates to MCF7 cells. Kind of assay: Cell viability assay, MCF7. In kind it is cell-based. The conditions noted are these: Homo sapiens. How it is done: as §1
Assay [3] relates to T47D cells. Kind of assay: Cell viability assay, T47D. In kind it is cell-based. The note with it: Homo sapiens, 144 h. On the procedure:
as §1

Assay [4] deals with MDAMB361 cells. Kind of assay: Cell viability assay, MDAMB361. The format is cell-based. The note with it: Homo sapiens. How it is done:
as §1

Assay [5] deals with LNCap cells. Put plainly: Cell viability assay, LNCap. In kind it is cell-based. The conditions noted are these: Homo sapiens, 144 h. How it is done:
as §1

Assay [6] concerns the target ER (Homo sapiens (Human), UniProt P03372). Put plainly: ER antagonism assay. In kind it is cell-based. The note with it: SK-BR-3 cells transfected with ERE plasmid and ER, 100 nM β-Estradiol, 24 h. On the procedure:
ER antagonism assay: To evaluate ER antagonist activity, SK-BR-3 cells were seeded at a density of 30000 cells/well in the assay plate. The assay plate was then incubated at 37° C., 5% CO2 for 24 h. A mixture of ERE plasmid and ER in opti-MEM media was incubated with lipofectamine 3000 in Opti-MEM media and incubated at room temperature for 15 mins. 10 μl of this transfection mix was added to each well of the assay plate and the assay plate was incubated at 37° C., 5% CO2 for 24 h. 100 nM β-Estradiol in 10 μL medium or 10 μL medium (control wells) was added to corresponding wells of assay plate and incubated at 37° C. 5% CO2 for 24 h. After the incubation period, 50 μl of Dual-glo luciferase reagent was added to the assay plate and mixed at room temperature for 20 mins on an orbital shaker, before reading out on the EnVision plate reader. 50 μL of Stop & Glo reagent was added to assay plate, mixed at room temperature for 20 minutes, and read on the Envision plate reader.

The target of assay [7] is ER Alpha-ligand binding domain (LBD) (Homo sapiens (Human), UniProt P03372). Kind of assay: ER binding assay (LanthaScreen TR-FRET ER Alpha Competitive Binding). The conditions noted are these: Fluormone ES2 Green tracer 3 nM, 2 h room temperature. How it is done: ER binding assay: ERα binding was assessed using the LanthaScreen® TR-FRET ER Alpha Competitive Binding kit from ThermoFisherScientific. In this assay, a terbium-labeled anti-GST antibody was used to indirectly label GST-tagged ER Alpha-ligand binding domain (LBD) by binding to its GST tag. Competitive binding to the ER Alpha-LBD (GST) was detected by a test compound's ability to displace a fluorescent ligand (Fluormone™ ES2 Green tracer) from the ER Alpha-LBD (GST), which results in a loss of FRET signal between the Tb-anti-GST antibody and the tracer. Briefly, to assess ER binding of the DDC compounds, the test compounds (top dose 10 μM, 4 fold serial dilution, 8 point dose response) and controls were transferred to the assay plate. The Fluormone™ ES2 Green tracer (3 nM final concentration with assay buffer) was added to the assay plate. This was followed by addition of a mixture of the ER Alpha-LBD (GST) and terbium anti-GST antibody. After a 2 h incubation period at room temperature, the plate was read on the Envision plate reader and the TR-FRET ratio of 520:495 emissions were calculated and used to determine the IC50 from a dose response curve of the compound.
Sequence of ER Alpha-ligand binding domain (LBD) (P03372 whole entry, looked up, the tested form may be a part): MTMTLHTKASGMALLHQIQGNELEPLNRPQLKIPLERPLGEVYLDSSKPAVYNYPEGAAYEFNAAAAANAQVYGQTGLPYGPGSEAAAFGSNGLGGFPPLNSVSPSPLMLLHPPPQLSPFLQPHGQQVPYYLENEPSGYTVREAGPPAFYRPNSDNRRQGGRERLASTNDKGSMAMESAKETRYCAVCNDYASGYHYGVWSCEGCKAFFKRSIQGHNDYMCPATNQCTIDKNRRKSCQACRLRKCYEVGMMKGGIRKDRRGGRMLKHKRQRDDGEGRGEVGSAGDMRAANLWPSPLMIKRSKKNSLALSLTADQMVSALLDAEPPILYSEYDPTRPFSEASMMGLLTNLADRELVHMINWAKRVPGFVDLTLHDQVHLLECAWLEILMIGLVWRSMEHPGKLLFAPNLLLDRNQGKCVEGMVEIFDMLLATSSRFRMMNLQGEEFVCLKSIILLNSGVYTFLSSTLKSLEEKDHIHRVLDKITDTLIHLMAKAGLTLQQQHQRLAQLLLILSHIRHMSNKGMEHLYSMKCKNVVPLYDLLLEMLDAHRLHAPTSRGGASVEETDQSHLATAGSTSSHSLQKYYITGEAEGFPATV
(In general: TR-FRET usually uses a lanthanide donor and a delayed reading to cut background.)

Setting [8] is: MCF7, 144 h, read-out: MCF7 (GI50, nM).
The mark [9] stands for this setting: MDA-MB-361, 144 h, read-out: MDA-MB-361 (GI50, nM).
Setting [10] is: IEC-6, 144 h, read-out: IEC-6 (IC50, nM).
[11] abbreviates: T47D, read-out: T47D (GI50, nM).
[12] abbreviates: LNCaP, read-out: LNCap (GI50, nM).

Sequence of ER (P03372 whole entry, looked up): as the sequence (P03372 whole entry, looked up, the tested form may be a part) above

Consider `CC[C@@]1(O)C(=O)OCc2c1cc1n(c2=O)Cc2cc3c(CN4CCN(C(=O)CCCCCN(C)c5ccc([C@H]6C[C@@]7(C)[C@@H](CC[C@]7(OC(C)=O)C(C)=O)[C@@H]7CCC8=CC(=O)CCC8=C76)cc5)CC4)c(O)ccc3nc2-1` [Compound 19, (8S,11R,13S,14S,17R)-17-Acetyl-11-(4-((6-(4-(((S)-4-ethyl-4,9-dihydroxy-3,14-dioxo-3,4,12,14-tetrahydro-1H-pyrano[3′,4′:6,7]indolizino[1,2-b]quinolin-10-yl)methyl)piperazin-1-yl)-6-oxohexyl)(methyl)amino)phenyl)-13-methyl-3-oxo-2,3,6,7,8,11,12,13,14,15,16,17-dodecahydro-1H-cyclopenta[a]phenanthren-17-yl Acetate], for which the IC50 in assay [1] (144 h, IEC-6 cells, 6 days, CellTiterGlo, read-out: IEC-6 (IC50)) is above 1000 nM. Also, the GI50 lay within 10 to 500 nM in assay [2] (144 h, MCF7 cells, 6 days, CellTiterGlo, read-out: MCF7 (GI50)); 10 to 500 nM in assay [3] (T47D cells, 6 days, CellTiterGlo, read-out: T47D (GI50)); 10 to 500 nM in assay [4] (144 h, MDA-MB-361 cells, 6 days, CellTiterGlo, read-out: MDA-MB-361 (GI50)); 10 to 500 nM in assay [5] (LNCap cells, 6 days, CellTiterGlo, read-out: LNCap (GI50)).

Consider `CCc1c2c(nc3ccc(OC(=O)N4CCN(C(=O)CCCCCOc5cc(F)c([C@@H]6c7[nH]c8ccccc8c7C[C@@H](C)N6CC(C)(C)F)c(F)c5)CC4)cc13)-c1cc3c(c(=O)n1C2)COC(=O)[C@]3(O)CC` [Compound 1, (S)-4,11-diethyl-4-hydroxy-3,14-dioxo-3,4,12,14-tetrahydro-1H-pyrano[3′,4′:6,7]indolizino[1,2-b]quinolin-9-yl 4-(6-(3,5-difluoro-4-((1R,3R)-2-(2-fluoro-2-methylpropyl)-3-methyl-2,3,4,9-tetrahydro-1H-pyrido[3,4-b]indol-1-yl)phenoxy)hexanoyl)piperazine-1-carboxylate], for which the values for the half-inhibitory concentration (IC50) in assay [6] and in assay [7] were 10 to 500 nM and below 10 nM, respectively. In addition, the GI50 in assay [2] (setting [8]) and in assay [4] (setting [9]) was 10 to 500 nM throughout.

On to `CC[C@@]1(O)C(=O)OCc2c1cc1n(c2=O)Cc2cc3c(COC(C)(C)C)c(OC(=O)N4CCN(CCCCCCN(C)c5ccc([C@H]6C[C@@]7(C)[C@@H](CC[C@]7(OC(C)=O)C(C)=O)[C@@H]7CCC8=CC(=O)CCC8=C76)cc5)CC4)ccc3nc2-1` [Compound 17, (S)-10-(tert-Butoxymethyl)-4-ethyl-4-hydroxy-3,14-dioxo-3,4,12,14-tetrahydro-1H-pyrano[3′,4′:6,7]indolizino[1,2-b]quinolin-9-yl 4-(6-((4-((8S,11R,13S,14S,17R)-17-acetoxy-17-acetyl-13-methyl-3-oxo-2,3,6,7,8,11,12,13,14,15,16,17-dodecahydro-1H-cyclopenta[a]phenanthren-11-yl)phenyl)(methyl)amino)hexyl)piperazine-1-carboxylate], for which the IC50 in assay [1] (setting [10]) was above 1000 nM. Besides, the GI50 in assay [2] (setting [8]), in assay [3] (setting [11]), in assay [4] (setting [9]) and in assay [5] (setting [12]) was above 1000 nM in each case.

For the molecule `CCc1c2c(nc3ccc(OC(=O)N4CCN(CCCCCCOc5cc(F)c([C@@H]6c7[nH]c8ccccc8c7C[C@@H](C)N6CC(C)(C)F)c(F)c5)CC4)cc13)-c1cc3c(c(=O)n1C2)COC(=O)[C@]3(O)CC` [Compound 2, (S)-4,11-diethyl-4-hydroxy-3,14-dioxo-3,4,12,14-tetrahydro-1H-pyrano[3′,4′:6,7]indolizino[1,2-b]quinolin-9-yl 4-(6-(3,5-difluoro-4-((1R,3R)-2-(2-fluoro-2-methylpropyl)-3-methyl-2,3,4,9-tetrahydro-1H-pyrido[3,4-b]indol-1-yl)phenoxy)hexyl)piperazine-1-carboxylate], the concentration for half-maximal inhibition (IC50) was 10 to 500 nM in assay [6] and below 10 nM in assay [7]. Also, the GI50 in assay [2] (setting [8]) and in assay [4] (setting [9]) was 10 to 500 nM throughout.

In the case of `CC[C@@]1(O)C(=O)OCc2c1cc1n(c2=O)Cc2cc3c(CN(C)C)c(OC(=O)N4[C@H](C)CN(CCCCCCN(C)c5ccc([C@H]6C[C@@]7(C)[C@@H](CC[C@]7(OC(C)=O)C(C)=O)[C@@H]7CCC8=CC(=O)CCC8=C76)cc5)C[C@H]4C)ccc3nc2-1` [Compound 16, (S)-10-((Dimethylamino)methyl)-4-ethyl-4-hydroxy-3,14-dioxo-3,4,12,14-tetrahydro-1H-pyrano[3′,4′:6,7]indolizino[1,2-b]quinolin-9-yl (2R,6R)-4-(6-((4-((8S,11R,13S,14S,17R)-17-acetoxy-17-acetyl-13-methyl-3-oxo-2,3,6,7,8,11,12,13,14,15,16,17-dodecahydro-1H-cyclopenta[a]phenanthren-11-yl)phenyl)(methyl)amino)hexyl)-2,6-dimethylpiperazine-1-carboxylate], the IC50 in assay [1] (setting [10]) was above 1000 nM. For the same molecule, the GI50 in assay [2] (setting [8]) was 10 to 500 nM; in assay [3] (setting [11]), 10 to 500 nM; in assay [4] (setting [9]) it was above 1000 nM; in assay [5] (setting [12]) it was 501 to 1000 nM.

`CC[C@@]1(O)C(=O)OCc2c1cc1n(c2=O)Cc2cc3c(CN(C)C)c(OC(=O)N4CCN(CCCCCCOc5cc(F)c(C6c7[nH]c8ccccc8c7CC(C)N6CC(C)(C)F)c(F)c5)CC4)ccc3nc2-1` (stereo in doubt) [Compound 13, (S)-10-((Dimethylamino)methyl)-4-ethyl-4-hydroxy-3,14-dioxo-3,4,12,14-tetrahydro-1H-pyrano[3′,4′:6,7]indolizino[1,2-b]quinolin-9-yl 4-(6-(3,5-difluoro-4-((1S,3S)-2-(2-fluoro-2-methylpropyl)-3-methyl-2,3,4,9-tetrahydro-1H-pyrido[3,4-b]indol-1-yl)phenoxy)hexyl)piperazine-1-carboxylate]: the IC50 was 10 to 500 nM in assay [6], 501 to 1000 nM in assay [1] (setting [10]) and 10 to 500 nM in assay [7]. Also, the GI50 in assay [2] (setting [8]) and in assay [4] (setting [9]) was 10 to 500 nM throughout.

The IC50 is the concentration that gives 50% inhibition. For orientation: GI50 means the concentration giving 50% growth inhibition.
